Data on one compound can be found in patent publication US11718645B2, “Macrocyclic therapeutic agents, methods of manufacture, and methods of treatment” (University of Florida Research Foundation, Incorporated, priority 2014, dated 2023).

One data set can be described thus: Microsomal stability. Type of data set: in vitro ADME, mouse. As to the method:
HPLC-MS was done on a 3200 QTRAP (Applied Biosystems) equipped with a Shimadzu (Kyoto, Japan) UFLC System. Mouse serum and harmine were purchased from Sigma-Aldrich. Pooled CD1 mouse liver (female) microsomes were purchased from XenoTech, LCC (Lenexa, Kans.) with protein concentrations of 0.5 mg/ml. HCT116 cell lysates were prepared with PhosphoSafe lysis buffer (Novagen). Protein concentration was determined by using the BCA Assay. Analysis was carried out similarly as previously described [Liu, Y.; Salvador, L. A.; Byeon, S.; Ying, Y.; Kwan, J. C.; Law, B. K.; Hong, J.; Luesch. H. J. Pharmacol. Exp. Ther. 2010, 335, 351-361].
The stability of apratoxin A, S4 (BK), S7 (BL), S8 (BM) and S9 (BN) in the presence of mouse microsomes was determined by using an adaptation of a published procedure [Ackley, D. C.; Rockich, K. T.; Baker, T. R. Optimization in Drug Discovery: In Vitro Methods (Series: Methods in Pharmacology and Toxicology) (eds Yan Z, Caldwell J W) 2004, pp 151-162, Springer, New Jersey]. In brief, microsomes were added to prewarmed phosphate buffer (100 mM, pH 7.4) at 37° C. Apratoxin A, BK, BL, BM, or BN (3 μL) were added to the microsomal preparation followed by NADPH cofactor solution (1.3 mM NADP, 3.3 mM glucose 6-phosphate, 0.4 U/mL glucose-6-phosphate dehydrogenase, 3.3 mM MgCl2). The reaction was allowed to proceed for 3 min to 3 h (7 time points) at 37° C. (thermomixer, 1050 rpm). The reaction was quenched by addition of ethyl acetate and subsequently spiked with harmine. The zero time point was defined by denaturing the microsomes with ethyl acetate before the addition of apratoxins. Incubation of apratoxins with microsomes alone was also performed following the same procedure to determine NADPH-dependent metabolism. The final concentration of the incubation mixture contained 0.5 mg/ml protein concentration and 1 μM apratoxins.
(§1) Analysis of apratoxin A, S4 (BK), S7 (BL), S8 (BM) and S9 (BN) was done by using HPLC-MS [column, Onyx Monolithic C18 (3.0×100 mm), Phenomenex (Torrance, Calif.); solvent, water (solvent A) acetonitrile (solvent B); flow rate, 0.5 ml/min; detection by electrospray ionization-MS in positive ion mode (MRM scan)]. A stepwise gradient elution was used starting at 60% B and 40% A, then increasing to 80% B at 5 min and maintained at this condition for 5 min. Parameters were optimized before analysis by using direct syringe infusion. The retention times (tR, min; MRM ion pair) of the analytes and internal standard are as follows: harmine (2.2; 213.1→169.9), apratoxin A (4.7; 841.4→445.2), apratoxin S4 (BK) (4.1; 828.5→432.2), apratoxin S7 (BL) (4.05; 814.5→418.2), apratoxin S8 (BM) (5.2; 842.5→446.2), apratoxin S9 (BN) (4.9; 828.5→432.2). Compound-dependent parameters used were as follows: apratoxin A, declustering potential (DP) 51, entrance potential (EP) 12, collision energy (CE) 45, collision cell exit potential (CXP) 6, collision cell entrance potential (CEP) 32; and harmine, DP 56.0, EP 4.5, CE 44.0, CXP 5, CEP 16.0. Source gas parameters used were as follows: curtain gas, 15.0; collision gas low, ionspray voltage 5500; temperature, 600.0; ion source gas 150.0; ion source gas 2 60.0.
(§2) Calibration curves for apratoxin A, S4 (BK), S7 (BL), S8 (BM) and S9 (BN) in the presence of mouse serum, HCT116 cell lysates, and aqueous solutions were generated by least-square linear regression analysis of the analyte peak area and internal standard peak area ratio against the nominal concentration of the standard solutions. A linear regression analysis was performed, and the concentration of remaining apratoxins at each time point was determined through interpolation for plasma, cellular, and aqueous stability experiments. The amount of remaining apratoxins with microsome incubation was determined from the peak area ratio of apratoxins at tx (3 min to 3 h) and t0. All calculations were done by using Analyst 1.4.2 (Applied Biosystems) Quantitate Mode.

The nature of data set [1]: Plasma stability in mouse serum. Type of data set: in vitro ADME. The following applies: up to 24 h, FIG. 2C. The procedure:
In vitro plasma stability of apratoxin A, S4 (BK), S7 (BL), S8 (BM) and S9 (BN) was done by using a modification of a published method [Chen, X.; Gardner, E. R.; Figg, W. D. J. Chromatogr. B Analyt. Technol. Biomed. Life Sci. 2008, 86, 153-158]. Ten microliters of apratoxin A, BK, BL, BM, or BN (25 μg/mL) were added to 100 μL of mouse serum, and the solution was vortex-mixed for 15 s and incubated for 0.25 min to 24 h (11 time points). At the end of each incubation period, 400 μL of ethyl acetate was added to each tube, followed by 200 μL of harmine to quench the reaction and to extract the remaining apratoxin A or S4 (BK), S7 (BL), S8 (BM) and S9 (BN). Samples were further incubated in a thermomixer at 27° C. (750 rpm, 5 min) and later centrifuged for 5 min at 1643 g. The ethyl acetate layer was collected and evaporated to dryness under nitrogen. Samples were reconstituted in 50 μL of acetonitrile. A volume of 10 μL of the reconstituted solution was injected into the HPLC-MS system.
as §1, with “Compound-dependent parameters used were as follows: apratoxin A, declustering potential (DP) 51, entrance potential (EP) 12, collision energy (CE) 45, collision cell exit potential (CXP) 6, collision cell entrance potential (CEP) 32; and harmine, DP 56.0, EP 4.5, CE 44.0, CXP 5, CEP 16.0. Source gas parameters used were as follows: curtain gas, 15.0; collision gas low, ionspray voltage 5500; temperature, 600.0; ion source gas 150.0; ion source gas 2 60.0.” left out
as §2

A further data set relates to HCT116 cells. Briefly: Cell viability assay (MTT). It counts as cell-based, human. Conditions: determined after 48 h (n = 4). The procedure: (§3) Human colon adenocarcinoma HCT116 cells were purchased from ATCC (Manassas, Va.) and cultured in Dulbecco's modified Eagle's medium (Invitrogen, Carlsbad, Calif.) supplemented with 10% fetal bovine serum (HyClone, Logan, Utah) at 37° C. humidified air and 5% CO2.
HCT116 cells were seeded at a density of 1×10^4 cells per well in 96-well plates. 24 h later the cells were treated with various concentrations of apratoxins or solvent control. After 48 h of incubation, cell viability was detected using MTT according to the manufacturer's instructions (Promega, Madison, Wis.).

A short description of data set [2]: Cellular stability in HCT116 cell lysate. Type of data set: in vitro ADME, human. Conditions: HCT116 protein lysate 0.7 mg/mL, up to 24 h, FIG. 2D. The procedure: Aliquots of HCT116 cell lysates were diluted with 25 mM Tris-HCl buffer, pH 8.0, to give a final reaction volume of 100 μL and protein concentration of 0.7 mg/mL. Cell lysate solutions were incubated with 10 μL of apratoxin A, BK, BL, BM, or BN (25 μg/mL) for 0.25 min to 24 h (nine time points). Remaining apratoxin A, BK, BL, BM, or BN were extracted from the reaction solution at the end of the incubation periods with ethyl acetate using the same procedure as described for the plasma stability assay.
as §1, §2

Another data set concerns HCT116 xenograft. The following applies: previous efficacious dose 0.25 mg/kg; cited from earlier work.
A further data set concerns VEGF-A secretion. As to the kind of experiment: Measurement of VEGF-A production (alphaLISA) in HCT116 culture supernatants. The following applies: determined after 12 h (n = 3). It counts as cell-based, human. The procedure: as §3
HCT116 cells (1×10^4 cells per well) were seeded in 96-well plates and one day later treated with various concentrations of apratoxins or solvent control. After 12 h of incubation, culture supernatants were collected for detection of VEGF-A by using an alphaLISA kit (PerkinElmer, Waltham, Mass.) following the manufacturer's instructions. Briefly, acceptor bead and anti-VEGF antibody were incubated first with the supernatants for 60 min, donor beads were added later and incubated for another 30 min and then VEGF-A levels detected using Envision (PerkinElmer).
Background: Bead proximity is the source of the signal in Alpha formats.

One may read the IC50 as the point on the concentration scale where inhibition reaches its midpoint. Read a high IC50 as lower potency.

Molecules are shown by their SMILES.

As for `CC[C@H](C)[C@H]1C(=O)N2CCC[C@H]2C(=O)O[C@H](C(C)(C)C)C[C@@H](C)C[C@H](O)[C@H](C)C2=N[C@@H](CCC(=O)N[C@@H](Cc3ccc(OC)cc3)C(=O)N(C)[C@@H](C)C(=O)N1C)CS2` [apratoxin S4 (BK), Apratoxin S4], the “% remaining” value in the data set “Microsomal stability” (microsomes + NADPH, 0 min) amounted to 100%; in “Microsomal stability” (microsomes + NADPH, 3 min), 39.55 ± 1.06%; in the data set “Microsomal stability” (microsomes + NADPH, 5 min), 32.20 ± 16.12%; in “Microsomal stability” (microsomes + NADPH, 15 min) it was 10.07 ± 1.46%; in the data set “Microsomal stability” (microsomes + NADPH, 30 min), 9.58 ± 1.03%; in the data set “Microsomal stability” (microsomes + NADPH, 60 min) it was 10.00 ± 0.71%. Besides, the “% remaining” value in the data set “Microsomal stability” (microsomes + NADPH, 120 min) is recorded as 6.02 ± 2.11%; in the data set “Microsomal stability” (microsomes only, 0 min) it was 100%; in the data set “Microsomal stability” (microsomes only, 3 min), 87.05 ± 1.63%; in “Microsomal stability” (microsomes only, 5 min), 70.80 ± 23.48%; in the data set “Microsomal stability” (microsomes only, 15 min), 87.20 ± 2.83%; in “Microsomal stability” (microsomes only, 30 min), 73.85 ± 15.49%. Further, the “% remaining” value in the data set “Microsomal stability” (microsomes only, 60 min) is 87.10 ± 1.41%; in “Microsomal stability” (microsomes only, 120 min) it was 55.25 ± 12.09%. In addition, the plasma stability result in data set [1] is on record as “excellent”. The IC50 in the data set with HCT116 cells amounted to 1430 pM; in the data set on VEGF-A secretion it was 320 pM. In addition, the cellular stability result in data set [2] is given as “excellent”. In the data set on HCT116 xenograft, the “in vivo activity (previous study)” value is “extremely potent and active in vivo”.
